Experimental data taken from patent US20140193827A1 (TEVA PHARMACEUTICAL INDUSTRIES, LTD., priority 2013, published 2014).

Test system: GA-primed murine splenocytes
Assay: ANOVA-based pattern identification method
Assay type: cell-based, mouse
Excerpt: We sought to identify probes matching specific patterns of expression across experimental conditions using a technique that referred to as the ANOVA-based Pattern Identification Method.
To carry out the analysis in a general manner, we computed the 6 p-values required to do pairwise comparisons of all 4 conditions for all probes using the ANOVA1 function in MATLAB. We then identified sets of probes matching the desired pattern. In the example above, probes were identified as being only affected by PG if their 6 pairwise comparison pvalues matched the following pattern (pGA-PG<0.05, pPG-reference standard<0.05, pPG-Medium<0.05, pGAMedium>0.05, pGA-reference standard>0.05, preference standard-Medium>0.05).

[1] = DOWN IN GA AND REF ONLY, first line for this gene
[2] = DOWN IN GA AND REF ONLY, second line for this gene

glatiramer acetate [GA] was tested, and the “average expression of LOC382163” value (DOWN IN GA AND REF ONLY) was 6.742, the “average expression of LOC383099” value (DOWN IN GA AND REF ONLY) was 13.14 and the “average expression of LOC386085” value (DOWN IN GA AND REF ONLY) was 6.21. For the same substance, the “average expression of LOC386117” value (DOWN IN GA AND REF ONLY) was 7.052, the “average expression of LOC636818” value (DOWN IN GA AND REF ONLY) was 5.986 and the “average expression of LOC100046003” value (DOWN IN GA AND REF ONLY) was 8.735. For the same substance, the “average expression of LYNX1” value (DOWN IN GA AND REF ONLY) was 8.531, the “average expression of MBD1” value (DOWN IN GA AND REF ONLY) was 9.009 and the “average expression of MBL1” value (DOWN IN GA AND REF ONLY) was 5.552. For the same substance, the “average expression of MKL1” value (DOWN IN GA AND REF ONLY) was 6.303, the “average expression of MREG” value (DOWN IN GA AND REF ONLY) was 8.88 and the “average expression of MYO7A” value (DOWN IN GA AND REF ONLY) was 6.668. The “average expression of NEURL” value (DOWN IN GA AND REF ONLY) was 5.956, the “average expression of NISCH” value (DOWN IN GA AND REF ONLY) was 7.088 and the “average expression of NOS3” value (DOWN IN GA AND REF ONLY) was 5.804. For the same substance, the “average expression of NTE” value (DOWN IN GA AND REF ONLY) was 8.3088, the “average expression of OLFR150” value (DOWN IN GA AND REF ONLY) was 5.626 and the “average expression of OLFR516” value (DOWN IN GA AND REF ONLY) was 5.76. The “average expression of OLFR586” value (DOWN IN GA AND REF ONLY) was 5.541, the “average expression of OPHN1” value (DOWN IN GA AND REF ONLY) was 5.71 and the “average expression of ORF19” value (DOWN IN GA AND REF ONLY) was 6.879. For the same substance, the “average expression of P2RX4” value (DOWN IN GA AND REF ONLY) was 7.358, the “average expression of PAPSS2” value (DOWN IN GA AND REF ONLY) was 6.662 and the “average expression of PARD3B” value (DOWN IN GA AND REF ONLY) was 5.905. For the same substance, the “average expression of PCBP2” value (DOWN IN GA AND REF ONLY) was 12.63, the “average expression of PCDH19” value (DOWN IN GA AND REF ONLY) was 5.63 and the “average expression of PEO1” value (DOWN IN GA AND REF ONLY) was 7.1356. For the same substance, the “average expression of PI4KB” value (DOWN IN GA AND REF ONLY) was 9.544, the “average expression of PIK3R6” value (DOWN IN GA AND REF ONLY) was 6.343 and the “average expression of PLEKHB2” value (DOWN IN GA AND REF ONLY) was 9.006. The “average expression of PREP” value (DOWN IN GA AND REF ONLY) was 7.918, the “average expression of PRKCZ” value (DOWN IN GA AND REF ONLY) was 6.967 and the “average expression of PROM” value (DOWN IN GA AND REF ONLY) was 5.87. For the same substance, the “average expression of RARG” value (DOWN IN GA AND REF ONLY) was 6.121, the “average expression of RASGRF1” value (DOWN IN GA AND REF ONLY) was 5.764 and the “average expression of RBM15” value (DOWN IN GA AND REF ONLY) was 7.902. For the same substance, the “average expression of RCCD1” value (DOWN IN GA AND REF ONLY) was 8.174, the “average expression of REN1” value (DOWN IN GA AND REF ONLY) was 5.599 and the “average expression of RFFL” value (DOWN IN GA AND REF ONLY) was 7.211. The “average expression of RHBDD1” value (DOWN IN GA AND REF ONLY) was 7.627, the “average expression of RING1” value (DOWN IN GA AND REF ONLY) was 8.656 and the “average expression of RNF10” value (DOWN IN GA AND REF ONLY) was 11.45. For the same substance, the “average expression of RNF123” value (DOWN IN GA AND REF ONLY) was 7.4966, the “average expression of S031414D18RIK” value (DOWN IN GA AND REF ONLY) was 8.467 and the “average expression of SCL0004023.1_57” value (DOWN IN GA AND REF ONLY) was 5.99. The “average expression of SEC16A” value (DOWN IN GA AND REF ONLY) was 9.968, the “average expression of SETD1A” value (DOWN IN GA AND REF ONLY) was 8.956 and the “average expression of SFXN3” value (DOWN IN GA AND REF ONLY) was 6.025. For the same substance, the “average expression of SGPL1” value (DOWN IN GA AND REF ONLY) was 7.481, the “average expression of SHC1” value (DOWN IN GA AND REF ONLY) was 11.03 and the “average expression of SHKBP1” value (DOWN IN GA AND REF ONLY) was 8.287. For the same substance, the “average expression of SLC9A4” value (DOWN IN GA AND REF ONLY) was 5.715, the “average expression of SLC25A42” value (DOWN IN GA AND REF ONLY) was 6.212 and the “average expression of SLC35E4” value (DOWN IN GA AND REF ONLY) was 5.806. For the same substance, the “average expression of SLCO6C1” value (DOWN IN GA AND REF ONLY) was 5.618, the “average expression of SMARCE1” value (DOWN IN GA AND REF ONLY) was 9.332 and the “average expression of SNX15” value (DOWN IN GA AND REF ONLY) was 9.294. For the same substance, the “average expression of SNX33” value (DOWN IN GA AND REF ONLY) was 6.987, the “average expression of SOLH” value (DOWN IN GA AND REF ONLY) was 7.952 and the “average expression of SP2” value (DOWN IN GA AND REF ONLY) was 6.867. For the same substance, the “average expression of SRGAP2” value (DOWN IN GA AND REF ONLY) was 7.797, the “average expression of SRGAP3” value (DOWN IN GA AND REF ONLY) was 6.074 and the “average expression of STARD3” value (DOWN IN GA AND REF ONLY) was 8.435. The “average expression of TBC1D2” value (DOWN IN GA AND REF ONLY) was 6.839, the “average expression of TBC1D25” value (DOWN IN GA AND REF ONLY) was 7.965 and the “average expression of TEAD4” value (DOWN IN GA AND REF ONLY) was 5.994. The “average expression of TGFBI” value (DOWN IN GA AND REF ONLY) was 6.19, the “average expression of TGIF1” value (DOWN IN GA AND REF ONLY) was 8.224 and the “average expression of TIMM8A2” value (DOWN IN GA AND REF ONLY) was 5.837. The “average expression of TLR13” value (DOWN IN GA AND REF ONLY) was 6.019, the “average expression of TMEM56” value (DOWN IN GA AND REF ONLY) was 5.549 and the “average expression of TMEM63A” value (DOWN IN GA AND REF ONLY) was 7.667. The “average expression of TMUB1” value (DOWN IN GA AND REF ONLY) was 8.55, the “average expression of TNS4” value (DOWN IN GA AND REF ONLY) was 5.759 and the “average expression of TRP53” value (DOWN IN GA AND REF ONLY) was 9.698. The “average expression of TYROBP” value (DOWN IN GA AND REF ONLY) was 7.408, the “average expression of USP11” value (DOWN IN GA AND REF ONLY) was 6.423 and the “average expression of USP22” value (DOWN IN GA AND REF ONLY) was 9.057. For the same substance, the “average expression of USP54” value (DOWN IN GA AND REF ONLY) was 6.972, the “average expression of WWP2” value (DOWN IN GA AND REF ONLY) was 8.833 and the “average expression of ZC3H12A” value (DOWN IN GA AND REF ONLY) was 8.215. For the same substance, the “average expression of ZFP36L1” value (DOWN IN GA AND REF ONLY) was 13.82, the “average expression of ZFP317” value (DOWN IN GA AND REF ONLY) was 7.218 and the “average expression of ZFP704” value (DOWN IN GA AND REF ONLY) was 5.829. The “average expression of ZFPL1” value (DOWN IN GA AND REF ONLY) was 7.39, the genericLS expression level (DOWN IN GA AND REF ONLY) was 6.212 and the “average expression of CLEC4B1” value [1] was 5.984. For the same substance, the “average expression of LOC100048105” value [1] was 13.17, the “average expression of SLC11A1” value [1] was 6.429 and the “average expression of CLEC4B1” value [2] was 5.725. For the same substance, the “average expression of LOC100048105” value [2] was 13.47, the “average expression of SLC11A1” value [2] was 6.896 and the “average expression of GAS7” value (DOWN IN GA AND REF ONLY, second line for this gene (first at r2479)) was 6.6505. For the same substance, the 29D0003A17RIK expression level (DOWN IN generic ONLY) was 6.032, the 1700081L16RIK expression level (DOWN IN generic ONLY) was 5.561 and the 2210003I03RIK expression level (DOWN IN generic ONLY) was 5.693. It also gave a 3110052M02RIK expression level (DOWN IN generic ONLY) of 5.651, a 3110079O15RIK expression level (DOWN IN generic ONLY) of 5.642 and a 4833419KD8RIK expression level (DOWN IN generic ONLY) of 5.588. It also gave a 4921522P10RIK expression level (DOWN IN generic ONLY) of 5.793, a 4930543E05RIK expression level (DOWN IN generic ONLY) of 5.681 and a 4930571C24RIK expression level (DOWN IN generic ONLY) of 5.414. For the same substance, the 5730599A22RIK expression level (DOWN IN generic ONLY) was 5.675, the 6430527G18RIK expression level (DOWN IN generic ONLY) was 5.618 and the 6720487G11RIK expression level (DOWN IN generic ONLY) was 5.949. The A230066D03RIK expression level (DOWN IN generic ONLY) was 5.913, the A530088H08RIK expression level (DOWN IN generic ONLY) was 5.838 and the A830021M18 expression level (DOWN IN generic ONLY) was 5.662. For the same substance, the ADAMTSL3 expression level (DOWN IN generic ONLY) was 5.806, the B230323D24RIK expression level (DOWN IN generic ONLY) was 5.81 and the BRPF1 expression level (DOWN IN generic ONLY) was 8.958. It also gave a BTF3L4 expression level (DOWN IN generic ONLY) of 5.682, a C430020E23RIK expression level (DOWN IN generic ONLY) of 5.906 and a CNTN2 expression level (DOWN IN generic ONLY) of 5.729. It also gave a CORO1B expression level (DOWN IN generic ONLY) of 11.36, a CRAT expression level (DOWN IN generic ONLY) of 5.921 and a CREBZF expression level (DOWN IN generic ONLY) of 5.66. For the same substance, the D130050A01RIK expression level (DOWN IN generic ONLY) was 5.633, the D130061E05RIK expression level (DOWN IN generic ONLY) was 5.723 and the D130063P19RIK expression level (DOWN IN generic ONLY) was 5.768. The D530031C13RIK expression level (DOWN IN generic ONLY) was 5.728, the DLG1 expression level (DOWN IN generic ONLY) was 5.734 and the EFCAB1 expression level (DOWN IN generic ONLY) was 5.72. For the same substance, the EG634762 expression level (DOWN IN generic ONLY) was 5.772, the ELMO2 expression level (DOWN IN generic ONLY) was 5.907 and the ENSMUSG00000071316 expression level (DOWN IN generic ONLY) was 5.766. It also gave an EZH2 expression level (DOWN IN generic ONLY) of 5.625.
